Data on five molecules can be found in patent publication US20220235065A1 (Epizyme, Inc., priority 2016, published 2022).

Structures are written as SMILES.

For one assay, the target named is T1, EHMT1 (Homo sapiens, UniProt Q9H9B1).
T1 sequence (Q9H9B1 1-1298): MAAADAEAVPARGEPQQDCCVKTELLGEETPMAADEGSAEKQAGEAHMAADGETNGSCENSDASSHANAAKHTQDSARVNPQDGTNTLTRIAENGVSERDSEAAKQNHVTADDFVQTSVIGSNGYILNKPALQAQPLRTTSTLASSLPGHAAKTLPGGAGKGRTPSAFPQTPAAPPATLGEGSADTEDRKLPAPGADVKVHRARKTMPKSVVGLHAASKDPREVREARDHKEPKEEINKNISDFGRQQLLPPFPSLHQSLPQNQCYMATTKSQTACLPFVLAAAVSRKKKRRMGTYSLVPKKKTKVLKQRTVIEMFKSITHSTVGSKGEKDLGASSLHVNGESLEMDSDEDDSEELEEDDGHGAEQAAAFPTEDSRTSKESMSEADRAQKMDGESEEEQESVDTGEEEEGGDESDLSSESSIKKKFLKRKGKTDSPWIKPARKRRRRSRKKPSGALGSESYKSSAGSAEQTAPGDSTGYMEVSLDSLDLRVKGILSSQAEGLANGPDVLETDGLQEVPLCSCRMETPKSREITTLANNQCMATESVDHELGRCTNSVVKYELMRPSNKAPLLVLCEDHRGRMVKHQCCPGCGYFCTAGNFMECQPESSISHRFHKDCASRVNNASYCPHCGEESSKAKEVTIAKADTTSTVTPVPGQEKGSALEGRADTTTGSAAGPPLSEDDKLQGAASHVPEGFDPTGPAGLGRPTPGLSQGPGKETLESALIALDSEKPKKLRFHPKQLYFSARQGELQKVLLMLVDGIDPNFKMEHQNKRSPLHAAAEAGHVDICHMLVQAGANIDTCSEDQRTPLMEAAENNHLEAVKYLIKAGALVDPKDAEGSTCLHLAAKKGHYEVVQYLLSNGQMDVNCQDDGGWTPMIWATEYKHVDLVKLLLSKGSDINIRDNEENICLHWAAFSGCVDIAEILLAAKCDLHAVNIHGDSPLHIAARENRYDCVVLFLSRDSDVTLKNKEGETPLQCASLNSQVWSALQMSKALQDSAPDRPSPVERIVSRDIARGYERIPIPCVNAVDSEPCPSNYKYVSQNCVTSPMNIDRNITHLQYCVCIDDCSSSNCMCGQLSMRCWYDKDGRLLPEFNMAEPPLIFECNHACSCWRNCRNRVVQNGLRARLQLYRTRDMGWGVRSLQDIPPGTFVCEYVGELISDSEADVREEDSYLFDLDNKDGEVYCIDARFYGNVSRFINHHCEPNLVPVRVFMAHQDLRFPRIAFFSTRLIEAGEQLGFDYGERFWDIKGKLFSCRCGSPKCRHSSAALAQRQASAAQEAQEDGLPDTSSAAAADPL
In words: EHMT1 PEP (EHMT1 peptide enzyme assay). The settings on record: peptide substrate enzyme assay. It is filed as biochemical.

For assay [1], the target named is T2, recombinant purified human EHMT2 913-1193 (Homo sapiens, UniProt Q96KQ7).
T2 construct: Recombinant purified human EHMT2 913-1193 (55 μM) synthesized by Viva was used for all experiments; purchased Viva
T2 sequence (Q96KQ7 913-1193): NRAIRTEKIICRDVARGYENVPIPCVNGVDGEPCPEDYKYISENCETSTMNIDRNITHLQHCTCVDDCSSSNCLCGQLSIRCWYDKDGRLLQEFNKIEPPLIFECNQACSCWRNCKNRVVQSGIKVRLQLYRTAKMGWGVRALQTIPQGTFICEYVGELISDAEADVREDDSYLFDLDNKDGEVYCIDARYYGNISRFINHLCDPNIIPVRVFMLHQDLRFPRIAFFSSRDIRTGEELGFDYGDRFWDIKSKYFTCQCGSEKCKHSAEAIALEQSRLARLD
As to the kind of experiment: EHMT2 enzyme assay on histone peptide substrate (3H-SAM Flashplate). It is filed as biochemical. Conditions: read-out: EHMT2 PEP (IC50 μM). How it is done: Recombinant purified human EHMT2 913-1193 (55 μM) synthesized by Viva was used for all experiments. Biotinylated histone peptides were synthesized by Biopeptide and HPLC-purified to >95% purity. Streptavidin Flashplates and seals were purchased from PerkinElmer and 384 Well V-bottom Polypropylene Plates were from Greiner. ^3H-labeled S-adenosylmethionine (3H-SAM) was obtained from American Radiolabeled Chemicals with a specific activity of 80 Ci/mmol. Unlabeled SAM and S-adenosylhomocysteine (SAH) were obtained from American Radiolabeled Chemicals and Sigma-Aldrich respectively. Flashplates were washed in a Biotek ELx-405 with 0.1% Tween. 384-well Flashplates and 96-well filter binding plates were read on a TopCount microplate reader (PerkinElmer). Compound serial dilutions were performed on a Freedom EVO (Tecan) and spotted into assay plates using a Thermo Scientific Matrix PlateMate (Thermo Scientific). Reagent cocktails were added by Multidrop Combi (Thermo Scientific).
General Procedure for EHMT2 Enzyme Assay on Histone Peptide Substrate.
10-point curves of test compounds were made on a Freedom EVO (Tecan) using serial 3-fold dilutions in DMSO, beginning at 2.5 mM (final top concentration of compound was 50 μM and the DMSO was 2%). A 1 μL aliquot of the inhibitor dilution series was spotted in a polypropylene 384-well V-bottom plate (Greiner) using a Thermo Scientific Matrix PlateMate (Thermo Scientific). The 100% inhibition control consisted of 1 mM final concentration of the product inhibitor S-adenosylhomocysteine (SAH, Sigma-Aldrich). Compounds were incubated for 30 minutes with 40 μL per well of 0.031 nM EHMT2 (recombinant purified human EHMT2 913-1193, Viva) in 1× assay buffer (20 mM Bicine [pH 7.5], 0.002% Tween 20, 0.005% Bovine Skin Gelatin and 1 mM TCEP). 10 μL per well of substrate mix comprising assay buffer, ^3H-SAM (3H-labeled S-adenosylmethionine, American Radiolabeled Chemicals, specific activity of 80 Ci/mmol), unlabeled SAM (American Radiolabeled Chemicals), and peptide representing histone H3 residues 1-15 containing C-terminal biotin (appended to a C-terminal amide-capped lysine, synthesized by Biopeptide and HPLC-purified to greater than 95% purity) were added to initiate the reaction (both substrates were present in the final reaction mixture at their respective Km values, an assay format referred to as “balanced conditions”). Reactions were incubated for 60 minutes at room temperature and quenched with 10 μL per well of 400 μM unlabeled SAM, then transferred to a 384-well streptavidin Flashplate (PerkinElmer) and washed in a Biotek ELx-405 well washer with 0.1% Tween after 60 minutes. 384-well Flashplates were read on a TopCount microplate reader (PerkinElmer).
IC50 curves were generated using triplicate wells per concentration of compound. The IC50 is the concentration of compound at which measured methylation is inhibited by 50% as interpolated from the dose response curves. IC50 values were calculated using a non-linear regression (variable slope-four parameter fit model) with by the following formula
where Top is fixed at 100% and Bottom is fixed to 0%, [I]=concentration of inhibitor, IC50=half maximal inhibitory concentration and n=Hill Slope.

Consider `CNc1cc(C)nc(Nc2ccc(Cl)c(C(=O)Nc3ncco3)c2)n1` [Compound 249], for which the IC50 at EHMT1 fell in the range of 0.1 to 1 µM. For `CNc1cc(C)nc(Nc2ccc(C)c(C(=O)Nc3cc(C#N)ccn3)c2)n1` [Compound 303], the IC50 in assay [1] fell in the range of 1 to 10 µM. As to `CNCc1cnn(-c2cc(Nc3nc(C)cc(NC)n3)ccc2C#N)c1` [Compound 332], the IC50 (against EHMT1; in assay [1]) was less than 0.1 µM each time.

For `CNc1cc(C)nc(Nc2ccc(OC)c(-n3cc([C@@H]4CCCN4)cn3)c2)n1` [Compound 333], the IC50 (against EHMT1; in assay [1]) was less than 0.1 µM in each case. Regarding `CNc1cc(C)nc(Nc2ccc(OC)c(-n3cc([C@H]4CCCN4)cn3)c2)n1` [Compound 334], the half-inhibitory concentration (IC50) (against EHMT1; in assay [1]) was less than 0.1 µM throughout.
